{"source": "patent US7405230B2", "about": "“Phosphodiesterase 4 inhibitors, including N-substituted aniline and diphenylamine analogs” (Memory Pharmaceuticals Corporation, priority 2002, dated 2008)", "key": {"Rats [1]": {"test_system": "Rats", "test": "Passive avoidance in rats, an in vivo test for learning and memory (reversal of MK-801 amnesia)", "parameters": "species or system rat (Male Spraque-Dawley (Harlan))", "conditions": "MK-801 0.1 mg/kg pretreatment, 24 hours after electric shock, compared to the vehicle (p<0.001)", "protocol": "The test was performed as previously described (Zhang, H.-T., Crissman, A. M., Dorairaj, N. R., Chandler, L. J., and O'Donnell, J. M., Neuropsychopharmacology, 2000, 23, 198-204.). The apparatus (Model E10-16SC, Coulbourn Instruments, Allentown, Pa.) consisted of a two-compartment chamber with an illuminated compartment connected to a darkened compartment by a guillotine door. The floor of the darkened compartment consisted of stainless steel rods through which an electric foot-shock could be delivered from a constant current source. All experimental groups were first habituated to the apparatus the day before the start of the experiment. […] The latency for entering the darkened compartment was recorded. […] Twenty-four hours later, the rat was administered 0.1 mg/kg MK-801 or saline, 30 minutes prior to the injection of saline or test compound (dosed from […], which was 30 minutes before the retention test started. The rat was again placed in the illuminated compartment with the guillotine door open. The latency for entering the darkened compartment was recorded for up to 180 seconds, at which time the trial was terminated.\n(§1) All data were analyzed by analyses of variance (ANOVA); individual comparisons were made using Kewman-Keuls tests. […]"}, "Rats [2]": {"test_system": "Rats", "test": "Radial arm maze task in rats, an in vivo test for learning and memory (reversal of MK-801 amnesia)", "parameters": "species or system rat (male Spraque-Dawley (Harlan))", "conditions": "MK-801 0.1 mg/kg, i.p., compared to control (p<0.01)", "protocol": "The test was performed as previously described (Zhang, H.-T., Crissman, A. M., Dorairaj, N. R., Chandler, L. J., and O'Donnell, J. M., Neuropsychopharmacology, 2000, 23, 198-204.). Five days after initial housing, rats (male Spraque-Dawley (Harlan) weighing 250 to 350 g) were placed in the eight-arm radial maze (each arm was 60×10×12 cm high; the maze was elevated 70 cm above the floor) for acclimation for two days. Rats were then placed individually in the center of the maze for 5 minutes with food pellets placed close to the food wells, and then, the next day, in the wells at the end of the arms; 2 sessions a day were conducted. Next, four randomly selected arms were then baited with one pellet of food each. The rat was restricted to the center platform (26 cm in diameter) for 15 seconds and then allowed to move freely throughout the maze until it collected all pellets of food or 10 minutes passed, whichever came first. Four parameters were recorded: 1) working memory errors, i.e., entries into baited arms that had already been visited during the same trial; 2) reference memory errors, i.e., entries into unbaited arms; 3) total arm entries; and 4) the test duration (seconds), i.e., the time spent in the collection of all the pellets in the maze. […]\nas §1"}}, "data": [{"smiles": "C[C@]12N[C@H](Cc3ccccc31)c1ccccc12", "note": "[MK-801]", "values": [{"measurement": "Latency for entering the darkened compartment", "setting": "Rats [1]", "result": "markedly reduced this latency"}, {"measurement": "Frequencies of working and reference memory errors", "setting": "Rats [2]", "result": "increased the frequencies of both working and reference memory errors"}]}]}
